From patent EP0532097A1, “Piperazinyl(sulfon)amide derivatives of camphor as oxytocin antagonists” (MERCK & CO. INC., priority 1991, dated 1993)

Each molecule was assayed against T1, uterine OT receptors (Rattus norvegicus, UniProt P70536) (assay: [³H]Oxytocin radioligand binding assay, crude membrane preparation of uteri from DES-treated rats). Settings: not given.
T1 construct: using a crude membrane preparation of uteri; from tissue; host or cells: uterus of DES-treated rats, crude membrane preparation
T1 sequence (P70536 1-388): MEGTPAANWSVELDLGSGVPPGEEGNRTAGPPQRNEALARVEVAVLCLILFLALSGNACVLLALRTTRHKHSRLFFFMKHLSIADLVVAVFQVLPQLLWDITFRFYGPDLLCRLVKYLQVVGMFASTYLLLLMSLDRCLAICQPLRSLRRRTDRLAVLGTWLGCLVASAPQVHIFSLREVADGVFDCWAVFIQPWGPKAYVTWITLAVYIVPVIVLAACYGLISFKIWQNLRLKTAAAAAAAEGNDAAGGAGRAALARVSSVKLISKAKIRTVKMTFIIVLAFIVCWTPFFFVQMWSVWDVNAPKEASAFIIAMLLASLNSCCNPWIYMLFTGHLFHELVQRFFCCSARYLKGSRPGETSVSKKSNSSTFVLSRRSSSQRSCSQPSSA

Q: How did the IC50 turn out when `Cc1ccccc1N1CCN(S(=O)(=O)C[C@]23CC[C@H](C[C@@H]2NC(=O)[C@H](CCS(C)(=O)=O)NC(=O)Cc2c[nH]cn2)C3(C)C)CC1` [Example 37, 1-((7,7-Dimethyl-2-endo-(2s-(imidazol-4-ylacetyl-amino)-4-(methyl-sulfonyl)butyramido)-bicyclo(2.2.1)-heptan-1-yl)methanesulfonyl)-4-(2-methylphenyl)-piperazine] was run?
A: Its IC50 is 1.2 nM.

Same assay, conditions: at 1,000 nM; 1 µM

Q: How did the “inhibition at 1,000 nM” value turn out when “1-((7,7-Dimethyl-2-(3-acetamido-3-carboxy)propylidine-bicyclo(2.2.1)-heptan-1-yl)methanesulfonyl)-4-(2-methylphenyl)piperazine [Example 29]” was run?
A: Its value is 78% inhibition at 1,000 nM.

Same assay, conditions: competition with 1 nM [³H]OT, 60 minutes, 22°C; concentration that inhibits 50% of OT; read-out: IC50

Q: With `COC(=O)[C@H]1C[C@H]2CC[C@]1(CS(=O)(=O)N1CCN(c3ccccc3C)CC1)C2(C)C` [Example 23, 1-((7,7-Dimethyl-2-endo-methoxycarbonyl-bicyclo-(2.2.1)heptan-1-yl)methanesulfonyl)-4-(2-methyl-phenyl)piperazine] as the molecule, how does the IC50 read?
A: Its IC50 is 120 nM.

Q: With `Cc1ccccc1N1CCN(S(=O)(=O)C[C@]23CC[C@H](C[C@@H]2NC(=O)[C@H](CCS(C)(=O)=O)N(C)C)C3(C)C)CC1` [Example 38, 1-((7,7-Dimethyl-2-endo-(2s-(dimethylamino)-4-(methylsulfonyl)butyramido)-bicyclo(2.2.1)heptan-1-yl)methanesulfonyl)-4-(2-methyl-phenyl)piperazine] as the molecule, how does the IC50 read?
A: Its IC50 is 5.4 nM.

Q: How did the IC50 turn out when `Cc1ccccc1N1CCN(S(=O)(=O)C[C@]23CC[C@H](C[C@@H]2N(C)C(=O)[C@H](CCS(C)(=O)=O)N(C)C)C3(C)C)CC1` [Example 42, 1-((7,7-Dimethyl-2-endo-methyl(2s-dimethylamino-4-(methylsulfonyl)-butanoyl)amino-bicyclo(2.2.1)heptan-1-yl)methanesulfonyl)-4-(2-methylphenyl)-piperazine] was run?
A: The IC50 was 9.2 nM.

Q: Which IC50 does the source give for `Cc1ccccc1N1CCN(S(=O)(=O)C[C@]23CC[C@H](C[C@@H]2C(=O)O)C3(C)C)CC1` [Example 24, 1-((7,7-Dimethyl-2-endo-carboxy-bicyclo(2.2.1)heptan-1-yl)methane-sulfonyl)-4-(2-methylphenyl)piperazine] here?
A: The IC50 was 260 nM.

Q: `Cc1ccccc1N1CCN(S(=O)(=O)C[C@]23CC[C@H](C[C@@H]2NC(=O)C(C)c2c[nH]cn2)C3(C)C)CC1` (stereo partly drawn) [Example 44, 1-((7,7-Dimethyl-2-endo-(2-(4-imidazolyl)propanoyl)-amino-bicyclo-(2.2.1)heptan-1-yl)methanesulfonyl)-4-(2-methylphenyl)piperazine] was tested. Which IC50 did it give?
A: The IC50 was 26 nM.

Q: `Cc1ccccc1N1CCN(S(=O)(=O)CC23CCC(CC2=NO)C3(C)C)CC1` (stereo not shown) [Example 33, 1-((7,7-Dimethyl-2-oximino-bicyclo(2.2.1)heptan-1-yl)methanesulfonyl)-4-(2-methylphenyl)-piperazine] was tested. Which IC50 did it give?
A: The IC50 was 460 nM.

Same assay, conditions: read-out: inhibition at 100 nM

Q: With `C=CC1(O)CC2CCC1(CS(=O)(=O)N1CCN(c3ccccc3C)CC1)C2(C)C` (stereo not drawn) [Example 12, 1-((7,7-dimethyl-2-exo-hydroxy-2-endo-ethenyl-bicyclo(2.2.1)heptan-1-yl)methanesulfonyl)-4-(2-methylphenyl)piperazine] as the molecule, how does the inhibition at 0.1 µM read?
A: Its inhibition at 0.1 µM is 23%.

Q: With `COC(=O)CCNCC(C)C1(O)CC2CCC1(CS(=O)(=O)N1CCN(c3ccccc3C)CC1)C2(C)C` (stereo not drawn) [Example 10, 1-((7,7-Dimethyl-2-exo-hydroxy-2-endo-2-(1-(2-methoxycarbonylethyl)-amino)propyl-bicyclo(2.2.1)heptan-1-yl)methanesulfonyl)-4-(2-methylphenyl)piperazine] as the molecule, how does the inhibition at 0.1 µM read?
A: Its inhibition at 0.1 µM is 48%.

Q: With `CCOC(=O)C(CC=C1CC2CCC1(CS(=O)(=O)N1CCN(c3ccccc3C)CC1)C2(C)C)(NC(C)=O)C(=O)OCC` (stereo not shown) [Example 28, 1-((7,7-Dimethyl-2-(3-acetamido-3,3'-di(ethoxycarbonyl))propylidine-bicyclo(2.2.1)heptan-1-yl)methanesulfonyl)-4-(2-methylphenyl)piperazine] as the molecule, how does the inhibition at 0.1 µM read?
A: Its inhibition at 0.1 µM is 35%.

Q: With `Cc1ccccc1N1CCN(S(=O)(=O)CC23CCC(CC2=CCNC(=O)Cc2cnc[nH]2)C3(C)C)CC1` (stereo not shown) [Example 17, 1-((7,7-dimethyl-2-(2-(4(5)-imidazolylacetyl)amino)-ethylidine-bicyclo(2.2.1)heptan-1-yl)methane-sulfonyl)-4-(2-methylphenyl)piperazine] as the molecule, how does the inhibition at 0.1 µM read?
A: The inhibition at 0.1 µM was 36%.

Q: `Cc1ccccc1N1CCN(S(=O)(=O)C[C@]23CC[C@H](C[C@@H]2NC(=O)[C@H](CCS(C)(=O)=O)NC(=O)OC(C)(C)C)C3(C)C)CC1` [Example 35, 1-((7,7-Dimethyl-2-endo-(2S-(tert-butyloxycarbonyl-amino)-4-(methyl-sulfonyl)-butyramido)-bicyclo(2.2.1)-heptan-1-yl)methanesulfonyl)-4-(2-methylphenyl)-piperazine] was tested. Which inhibition at 0.1 µM did it give?
A: The inhibition at 0.1 µM was 91%.

Same assay, conditions: read-out: inhibition at 1,000 nM

Q: For `Cc1ccccc1N1CCN(S(=O)(=O)C[C@]23CC[C@H](C[C@H]2O)C3(C)C)C(C)C1` (stereo partly drawn) [Example 32, 1-((7,7-Dimethyl-2-exo-hydroxy-bicyclo(2.2.1)heptan-1-yl)methane-sulfonyl)-4-(2-methylphenyl)-2-methyl-piperazine], which inhibition at 1 µM is on record?
A: The inhibition at 1 µM was 37%.

Q: With `COC(=O)C1=CC2CCC1(CS(=O)(=O)N1CCN(c3ccccc3C)CC1)C2(C)C` (stereo not shown) [Example 20, 1-((7,7-Dimethyl-2-methoxycarbonyl-bicyclo(2.2.1)hept-2-en-1-yl)methanesulfonyl)-4-(2-methylphenyl)-piperazine] as the molecule, how does the inhibition at 1 µM read?
A: The inhibition at 1 µM was 72%.

Q: With `Cc1ccccc1N1CCN(S(=O)(=O)C[C@]23CC[C@H](C[C@@H]2NC(=O)OCc2ccccc2)C3(C)C)CC1` [Example 39, 1-((7,7-Dimethyl-2-endo-benzyloxycarbonylamino-bicyclo(2.2.1)heptan-1-yl)methanesulfonyl)-4-(2-methyl-phenyl)piperazine] as the molecule, how does the inhibition at 1 µM read?
A: The inhibition at 1 µM was 54%.

Q: For `Cc1ccccc1N1CCN(S(=O)(=O)CC23CCC(CC24CO4)C3(C)C)CC1` (stereo not shown) [Example 18, 1-((7,7-Dimethyl-2-spiro-epoxy-bicyclo(2.2.1)heptan-1-yl)methane-sulfonyl)-4-(2-methylphenyl)piperazine], which inhibition at 1 µM is on record?
A: Its inhibition at 1 µM is 75%.

Q: How did the inhibition at 1 µM turn out when `Cc1ccccc1N1CCN(S(=O)(=O)CC23CCC(C=C2C(=O)O)C3(C)C)CC1` (stereo not shown) [Example 21, 1-((7,7-Dimethyl-2-carboxy-bicyclo(2.2.1)hept-2-en-1-yl)methanesulfonyl)-4-(2-methylphenyl)piperazine] was run?
A: Its inhibition at 1 µM is 38%.

Q: How did the inhibition at 1 µM turn out when `Cc1ccccc1N1CCN(S(=O)(=O)CC23CCC(CC2=CCN)C3(C)C)CC1` (stereo not shown) [Example 16, 1-((7,7-dimethyl-2-(2-amino)ethylidine-bicyclo-(2.2.1)heptan-1-yl)methanesulfonyl)-4-(2-methyl-phenyl)piperazine] was run?
A: The inhibition at 1 µM was 64%.

Q: How did the inhibition at 1 µM turn out when `Cc1ccccc1N1CCN(S(=O)(=O)CC23CCC(C=C2C(=O)NCCc2cnc[nH]2)C3(C)C)CC1` (stereo not shown) [Example 22, 1-((7,7-Dimethyl-2-(4-imidazolyl)ethylaminocarbonyl-bicyclo(2.2.1)hept-2-en-1-yl)methanesulfonyl)-4-(2-methylphenyl)piperazine] was run?
A: Its inhibition at 1 µM is 78%.

Q: With `Cc1ccccc1N1CCN(S(=O)(=O)C[C@]23CC[C@H](C[C@]2(O)CNCC(C)C)C3(C)C)CC1` [Example 19, 1-((7,7-Dimethyl-2-exo-hydroxy-2-endo-isobutylamino-methyl-bicyclo(2.2.1)heptan-1-yl)methanesulfonyl)-4-(2-methylphenyl)piperazine] as the molecule, how does the inhibition at 1 µM read?
A: The inhibition at 1 µM was 31%.

Same assay, conditions: read-out: inhibition at 10,000 nM

Q: Which inhibition at 10 µM does the source give for `Cc1ccccc1N1CCN(S(=O)(=O)CC23CCC(CC2=O)C3(C)C)C(C)C1=O` (stereo not shown) [Example 31, 1-((7,7-Dimethyl-2-oxo-bicyclo(2.2.1)heptan-1-yl)methanesulfonyl)-4-(2-methylphenyl)-2-methyl-3-piperazinone] here?
A: The inhibition at 10 µM was 5%.
